Data: patent publication US10350210B2, “EGFR and ALK dual inhibitor” (PRECEDO PHARMACEUTICALS CO., LTD, priority 2015, dated 2019)

How the values were obtained:
Type in all cases: cell-based
[1] = system: PC-9; assay: Growth of cancer cells (Cell Titer-Glo viability), PC-9; settings: Homo sapiens; PC-9 (EGFR delE746_A750 mutant), 72 hrs
Summary of the method: (§1)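 Cells are counted as viable by CellTiter-Glo chemiluminescence. Murine BaF3 lines depend on a stably transfected TEL-fused kinase after IL-3 withdrawal, and the NSCLC lines express mutant EGFR.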

[2] = system: BaF3-TEL-CSF1R; assay: Cell growth (Cell Titer-Glo viability), BaF3-TEL-CSF1R; settings: Mus musculus; BaF3-TEL-CSF1R (stably expressing CSF1R protein), 72 hrs
Source text: (§2) By testing the effect of the novel kinase inhibitors on the proliferation of cancer cells, the selectivity of the compounds of the present disclosure in inhibiting the proliferation of cancer cells was further assessed. In this example, human non-small cell lung cancer cell NCI-H1975 (expressing EGFR L858R/T790M double mutant gene), human skin squamous carcinoma cell A431 (expressing wild-type EGFR gene), non-small cell lung cancer NCI-H3255 (expressing EGFR L858R mutant gene), non-small cell lung cancer cell NCI-H3122 (expressing ALK gene), human non-small cell lung cancer cell A549 (expressing wild-type EGFR gene), human non-small cell lung cancer cell NCI-H2122 (expressing wild-type EGFR gene), human non-small cell lung cancer cell NCI-H460 (expressing wild-type EGFR gene), human non-small cell lung cancer cell PC-9 (expressing EGFR delE746_A750 mutant gene), Chinese hamster ovary cell CHO (Cricetulus griseus, hamster, Chinese, ovary), Chinese hamster lung cell CHL, human non-small cell lung cancer cell HCC827 (expressing mutant EGFR del19 gene), human lung adenocarcinoma cell HCC4006 (expressing mutant EGFR del19 gene), human non-small cell lung cancer cell NCI-H2228 (expressing wild-type ALK gene), and mouse primary B cell BaF3 were used, and the above cells were all purchased from ATCC (US). In addition, mouse BaF3-TEL-ALK (stably expressing ALK kinase), mouse BaF3-ALK-F1174L (stably expressing mutant ALK F1174L kinase), mouse BaF3-NPM-ALK (stably expressing ALK kinase), mouse BaF3-TEL-EGFR (stably expressing EGFR kinase), mouse BaF3-TEL-EGFR-T790M (stably expressing EGFR T790M mutant kinase), mouse BaF3-FL-EGFR-Del19 (stably expressing EGFR delE746_A750 mutant kinase), mouse BaF3-TEL-EGFR-L858R (stably expressing EGFR L858R mutant kinase), mouse BaF3-FL-EGFR-T790M-L858R (stably expressing EGFR T790M/L858R mutant kinase), mouse BaF3-TEL-INSR (stably expressing INSR protein), mouse BaF3-TEL-IGF1R (stably expressing IGF1R Protein), mouse BaF3-EML4-ALK (stably expressing EML4-ALK Protein), mouse BaF3-TEL-JAK3 (stably expressing JAK3 kinase protein), mouse BaF3-TEL-CSF1R (stably expressing CSF1R protein), and mouse BaF3-TEL-ALK-F1196M (stably expressing ALK F1196M mutant kinase) were also used in this example. […]
(§3) The number of viable cells was determined quantitatively by a microplate reader using Cell Titer-Glo® (Promega, US) chemiluminescence cell viability assay kit.

[3] = system: BaF3; assay: Cell growth (Cell Titer-Glo viability), BaF3; settings: BaF3 mouse primary B cell, 72 hrs
[4] = system: NCI-H3122; assay: Growth of cancer cells (Cell Titer-Glo viability), NCI-H3122; settings: Homo sapiens; NCI-H3122 (expressing ALK gene), 72 hrs; read-out: GI50
[5] = system: BaF3-TEL-JAK3; assay: Cell growth (Cell Titer-Glo viability), BaF3-TEL-JAK3; settings: Mus musculus; BaF3-TEL-JAK3 (stably expressing JAK3 kinase protein), 72 hrs
Source text: (§4) By testing the effect of the novel kinase inhibitors on the proliferation of cancer cells, the selectivity of the compounds of the present disclosure in inhibiting the proliferation of cancer cells was further assessed. In this example, human non-small cell lung cancer cell NCI-H1975 (expressing EGFR L858R/T790M double mutant gene), human skin squamous carcinoma cell A431 (expressing wild-type EGFR gene), non-small cell lung cancer NCI-H3255 (expressing EGFR L858R mutant gene), non-small cell lung cancer cell NCI-H3122 (expressing ALK gene), human non-small cell lung cancer cell A549 (expressing wild-type EGFR gene), human non-small cell lung cancer cell NCI-H2122 (expressing wild-type EGFR gene), human non-small cell lung cancer cell NCI-H460 (expressing wild-type EGFR gene), human non-small cell lung cancer cell PC-9 (expressing EGFR delE746_A750 mutant gene), Chinese hamster ovary cell CHO (Cricetulus griseus, hamster, Chinese, ovary), Chinese hamster lung cell CHL, human non-small cell lung cancer cell HCC827 (expressing mutant EGFR del19 gene), human lung adenocarcinoma cell HCC4006 (expressing mutant EGFR del19 gene), human non-small cell lung cancer cell NCI-H2228 (expressing wild-type ALK gene), and mouse primary B cell BaF3 were used, and the above cells were all purchased from ATCC (US). In addition, mouse BaF3-TEL-ALK (stably expressing ALK kinase), mouse BaF3-ALK-F1174L (stably expressing mutant ALK F1174L kinase), mouse BaF3-NPM-ALK (stably expressing ALK kinase), mouse BaF3-TEL-EGFR (stably expressing EGFR kinase), mouse BaF3-TEL-EGFR-T790M (stably expressing EGFR T790M mutant kinase), mouse BaF3-FL-EGFR-Del19 (stably expressing EGFR delE746_A750 mutant kinase), mouse BaF3-TEL-EGFR-L858R (stably expressing EGFR L858R mutant kinase), mouse BaF3-FL-EGFR-T790M-L858R (stably expressing EGFR T790M/L858R mutant kinase), mouse BaF3-TEL-INSR (stably expressing INSR protein), mouse BaF3-TEL-IGF1R (stably expressing IGF1R Protein), mouse BaF3-EML4-ALK (stably expressing EML4-ALK Protein), mouse BaF3-TEL-JAK3 (stably expressing JAK3 kinase protein), mouse BaF3-TEL-CSF1R (stably expressing CSF1R protein), and mouse BaF3-TEL-ALK-F1196M (stably expressing ALK F1196M mutant kinase) were also used in this example. The above cell lines were all established by our laboratory via the following process: kinase proteins or protein domain sequences of human ALK, ALK F1174L, EGFR, EGFR T790M, EGFR delE746_A750, EGFR L858, EGFR T790M/L858R, INSR, IGF1R, EML4-ALK, JAK3, CSF1R, ALK F1196M were amplified respectively by PCR, and were respectively inserted into MSCV-Puro vector (Clontech) with N-terminal TEL fragments and/or NPM fragments and/or TPR fragments; the resultants were stably transfected into mouse BaF3 cells by the means of retrovirus, and the IL-3 growth factors were removed, and eventually the ALK, ALK F1174L, EGFR, EGFR T790M, EGFR delE746_A750, EGFR L858, EGFR T790M/L858R, INSR, IGF1R, EML4-ALK, JAK3, CSF1R, ALK F1196M-transferred protein dependent cell lines were obtained.
as §3

[6] = system: BaF3-TEL-INSR; assay: Cell growth (Cell Titer-Glo viability), BaF3-TEL-INSR; settings: Mus musculus; BaF3-TEL-INSR (stably expressing INSR protein), 72 hrs
Source text: as §4, §3

[7] = system: BaF3-EML4-ALK; assay: Cell growth (Cell Titer-Glo viability), BaF3-EML4-ALK; settings: Mus musculus, Ba/F3 EML4-ALK; BaF3-EML4-ALK (stably expressing EML4-ALK protein), 72 hrs
Source text: as §4, §3

[8] = system: NCI-H1975; assay: Growth of cancer cells (Cell Titer-Glo viability), NCI-H1975; settings: Homo sapiens; NCI-H1975 (EGFR L858R/T790M double mutant), 72 hrs
Summary of the method: as §1

[9] = system: HCC827; assay: Growth of cancer cells (Cell Titer-Glo viability), HCC827; settings: Homo sapiens; HCC827 (mutant EGFR del19), 72 hrs
Summary of the method: (§5)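 Luminescent ATP-based viability (CellTiter-Glo) measured viable cell number after compound exposure. Engineered lines were murine BaF3 made growth-factor independent by a TEL-kinase fusion and IL-3 removal. The human lung cancer lines harbor EGFR del19 (HCC827) or EGFR L858R (NCI-H3255).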

[10] = system: BaF3-TEL-ALK-F1196M; assay: Cell growth (Cell Titer-Glo viability), BaF3-TEL-ALK-F1196M; settings: Mus musculus; BaF3-TEL-ALK-F1196M (ALK F1196M mutant kinase), 72 hrs
Source text: By testing the effect of the novel kinase inhibitors on the proliferation of cancer cells, the selectivity of the compounds of the present disclosure in inhibiting the proliferation of cancer cells was further assessed. In this example, human non-small cell lung cancer cell NCI-H1975 (expressing EGFR L858R/T790M double mutant gene), human skin squamous carcinoma cell A431 (expressing wild-type EGFR gene), non-small cell lung cancer NCI-H3255 (expressing EGFR L858R mutant gene), non-small cell lung cancer cell NCI-H3122 (expressing ALK gene), human non-small cell lung cancer cell A549 (expressing wild-type EGFR gene), human non-small cell lung cancer cell NCI-H2122 (expressing wild-type EGFR gene), human non-small cell lung cancer cell NCI-H460 (expressing wild-type EGFR gene), human non-small cell lung cancer cell PC-9 (expressing EGFR delE746_A750 mutant gene), Chinese hamster ovary cell CHO (Cricetulus griseus, hamster, Chinese, ovary), Chinese hamster lung cell CHL, human non-small cell lung cancer cell HCC827 (expressing mutant EGFR del19 gene), human lung adenocarcinoma cell HCC4006 (expressing mutant EGFR del19 gene), human non-small cell lung cancer cell NCI-H2228 (expressing wild-type ALK gene), and mouse primary B cell BaF3 were used, and the above cells were all purchased from ATCC (US). […]
as §3

[11] = system: BaF3-NPM-ALK; assay: Cell growth (Cell Titer-Glo viability), BaF3-NPM-ALK; settings: Mus musculus; BaF3-NPM-ALK (stably expressing ALK kinase), 72 hrs
[12] = system: BaF3-TEL-ALK; assay: Cell growth (Cell Titer-Glo viability), BaF3-TEL-ALK; settings: Mus musculus; BaF3-TEL-ALK (stably expressing ALK kinase), 72 hrs
Summary of the method: as §5

[13] = system: BaF3-TEL-IGF1R; assay: Cell growth (Cell Titer-Glo viability), BaF3-TEL-IGF1R; settings: Mus musculus; BaF3-TEL-IGF1R (stably expressing IGF1R protein), 72 hrs
Source text: as §2, §3

[14] = system: A549; assay: Growth of cancer cells (Cell Titer-Glo viability), A549; settings: Homo sapiens; A549 (wild-type EGFR), 72 hrs
[15] = system: BaF3-TEL-EGFR-T790M; assay: Cell growth (Cell Titer-Glo viability), BaF3-TEL-EGFR-T790M; settings: Mus musculus; BaF3-TEL-EGFR-T790M (EGFR T790M mutant kinase), 72 hrs
Summary of the method: as §5

Row | SMILES | GI50 [1] [nM] | GI50 [2] [nM] | GI50 [3] [nM] | GI50 [4] [nM] | GI50 [5] [nM] | GI50 [6] [nM] | GI50 [7] [nM] | GI50 [8] [nM] | GI50 [9] [nM] | GI50 [10] [nM] | GI50 [11] [nM] | GI50 [12] [nM] | GI50 [13] [nM] | GI50 [14] [nM] | GI50 [15] [nM]
1 | C=CC(=O)Nc1cc(Nc2ncc(Cl)c(Nc3ccccc3C(=O)NC)n2)c(OC)cc1N1CCN(C(C)C)CC1 [Compound 69, 2-(2-(5-acrylamido-4-(4-isopropylpiperazin-1-yl)-2-methoxyphenylamino)-5-chloropyrimidin-4-ylamino)-N-methylbenzamide] | 15 | 100 | 1100 | 4.5 | 37 | 49 | 1.4 | 79 | 62 |  |  |  |  |  | 
2 | C=CC(=O)Nc1cc(Nc2ncc(C)c(Nc3ccccc3S(=O)(=O)C(C)C)n2)c(OC)cc1N1CCN(CC)CC1 [Compound 84, N-(2-(4-ethylpiperazin-1-yl)-5-(4-(2-(isopropylsulfonyl)phenylamino)-5-methylpyrimidin-2-ylamino)-4-methoxyphenyl)acrylamide] | 6 |  | 6600 | 2 |  | 4 |  | 43 |  | 2 | 2 | 1 |  |  | 
3 | C=CC(=O)Nc1cc(Nc2ncc(Cl)c(Nc3ccccc3C(=O)NC)n2)c(OC)cc1N1CCN(C(C)=O)CC1 [Compound 68, 2-(2-(4-(4-ethanoylpiperazin-1-yl)-5-acrylamido-2-methoxyphenylamino)-5-chloropyrimidin-4-ylamino)-N-methylbenzamide] | 97 |  | 5700 | 12 | 270 | 14 | 160 | 250 | 83 |  |  | 120 | 41 | 1700 | 250
4 | C=CC(=O)Nc1cc(Nc2ncc(F)c(Nc3ccccc3S(=O)(=O)C(C)C)n2)c(OC)cc1N1CCN(CC)CC1 [Compound 82, N-(2-(4-ethylpiperazin-1-yl)-5-(5-fluoro-4-(2-(isopropylsulfonyl)phenylamino)pyrimidin-2-ylamino)-4-methoxyphenyl)acrylamide] | 14 |  | 3000 | 2 |  | 7 |  | 48 |  | 6 | 1 | 1 |  |  | 
5 | C=CC(=O)Nc1cc(Nc2ncc(Cl)c(Nc3ccccc3C(=O)NC)n2)c(OC)cc1N1CCN(C2CCCCC2)CC1 [Compound 70, 2-(2-(5-acrylamido-4-(4-cyclohexylpiperazin-1-yl)-2-methoxyphenylamino)-5-chloropyrimidin-4-ylamino)-N-methylbenzamide] | 35 | 170 | 1000 | 7.6 | 58 | < 0.3 | 4.5 | 65 | 140 |  |  |  |  |  | 
